Several values for one entry are separate records, joined by “and”; a condition that tells them apart may be missing. Equal values may be shown once.
Columns and labels:
[1] = molecular target: T1, ADORA3 receptor (CHO cells stably expressing ADORA3 receptor) (Homo sapiens, UniProt P0DMS8); assay: Effect of compound on intracellular cAMP level by adenosine A3 receptor agonism; assay type: cell-based; conditions: forskolin-stimulated
T1 construct: expressed in transfected cells
T1 sequence (P0DMS8 1-318): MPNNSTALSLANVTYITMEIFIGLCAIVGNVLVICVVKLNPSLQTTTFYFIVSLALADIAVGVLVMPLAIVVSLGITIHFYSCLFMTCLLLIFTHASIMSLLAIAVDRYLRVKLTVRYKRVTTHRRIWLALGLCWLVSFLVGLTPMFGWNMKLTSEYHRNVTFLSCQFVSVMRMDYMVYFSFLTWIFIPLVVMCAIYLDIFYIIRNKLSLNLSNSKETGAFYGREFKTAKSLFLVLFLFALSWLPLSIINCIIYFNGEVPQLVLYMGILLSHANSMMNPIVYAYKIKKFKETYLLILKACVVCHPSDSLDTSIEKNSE
Method: Example 26: Test the Effect of Compound on Intracellular cAMP Level by Adenosine A3 Receptor Agonism
• 1) 1×HBSS with Ca2+ and Mg2+ (14 mL), 1 M HEPES (75 μL), a 7.5% (w/v) BSA stabilizer (pH 7.4, 200 μL), and 20 mM rolipram (7.5 μL) were respectively prepared as cAMP assay buffer. • 2) Preparation of compound source plate • a. […] A 10 mM stock solution was subjected to a 3-fold serial dilution by 100% (v/v) DMSO to prepare 10 doses of the test substance. • c. 1 mM of Forskolin was prepared by 100% (v/v) DMSO. • 3) Preparation of test plate • a. Prior to the assay, CHO cells stably expressing ADORA3 receptor were harvested and the cells were counted by using a Countess cell counter. […] The cells were seeded at a density of 2,000 cells/well in a 384-well plate. • 4) 10 nL/well of the serially diluted compound and 10 nL/well of 1 mM of forskolin were transferred to each well with ADORA3 receptor expressing cells by using Echo550. • 5) A cell plate was centrifuged at 1,000 rpm for 1 minute and then stirred at 600 rpm for 2 minutes. The plate was incubated at 37° C. • 6) An Eu-cAMP tracer working solution and an Ulight-anti-cAMP working solution were prepared according to the following table.
• 7) 5 μl/well of the Eu-cAMP tracer working solution and 5 μl/well of the Ulight-anti-cAMP working solution were added to each well of the plate. […] 2. Data Analysis • 1) An activation percentage was calculated by using the following formula:
[formula] • % Activation: activation percentage • Ratiocpd: ratio of emissivity of test compound • RatioLow control: ratio of low emissivity • RatioHigh control: ratio of high emissivity • 2) EC50 was calculated by an XLfit using the Hill equation to fit the activity percentage and a log of a compound concentration. 3. Test Result

[2] = Pharmacokinetic test of compound in SD rat; assay type: in vivo; conditions: SD rats, intragastric administration (IG), cassette dosing
Method: Example 28: Pharmacokinetic Test of Compound in SD Rat
The animal species used in this experiment were SD rats. There were 3 animals per group. The rats were dosed in cassette format, i.e., multiple (1-6) different compounds were dosed simultaneously to the same group of the SD rats. The vehicle used for the drug was 5% DMSO+5% Solutl+90% ([…] methylcellulose M450), and the administration route was intragastric administration (IG).

| Structure (SMILES) | EC50 [1] | AUC_D [2] |
| --- | --- | --- |
| CNC(=O)[C@H]1O[C@@H](n2cnc3c(NCc4ccccc4)nc(-c4cncc(OC)c4)nc32)[C@H](O)[C@@H]1O [compound 187, (2S,3S,4R,5R)-5-(6-(benzylamino)-2-(5-methoxypyridin-3-yl)-9H-purin-9-yl)-3,4-dihydroxyl-N-methyl-tetrahydrofuran-2-formamide] | 14.5 nM | 1269.78 kg·ng·h/mL/mg |
| CNC(=O)[C@H]1O[C@@H](n2cnc3c(NCc4cccc(C(F)(F)F)n4)nc(-c4cncc(F)c4)nc32)[C@H](O)[C@@H]1O [compound 289, (2S,3S,4R,5R)-5-(2-(5-fluoropyridin-3-yl)-6-(((6-(trifluoromethyl)pyridin-2-yl)methyl)amino)-9H-purin-9-yl)-3,4-dihydroxyl-N-methyltetrahydrofuran-2-carboxamide] | 6.81 nM | 106.30 kg·ng·h/mL/mg |
| CNC(=O)[C@H]1O[C@@H](n2cnc3c(NCc4cccc(C(F)(F)F)n4)nc(-c4cncc(Cl)c4)nc32)[C@H](O)[C@@H]1O [compound 290, (2S,3S,4R,5R)-5-(2-(5-chloropyridin-3-yl)-6-(((6-(trifluoromethyl)pyridin-2-yl)methyl)amino)-9H-purin-9-yl)-3,4-dihydroxyl-N-methyltetrahydrofuran-2-carboxamide] | 12.4 nM | 216.77 kg·ng·h/mL/mg |
| CNC(=O)[C@H]1O[C@@H](n2cnc3c(NCc4cccc(C)n4)nc(-c4cncc(OC)c4)nc32)[C@H](O)[C@@H]1O [compound 111, (2S,3S,4R,5R)-3,4-dihydroxyl-5-(2-(5-methoxypyridin-3-yl)-6-((((6-methylpyridin-2-yl))methyl)amino)-9H-purin-9-yl)-N-methyltetrahydrofuran-2-carboxamide] | 7.32 nM | 230.72 kg·ng·h/mL/mg |
| CNC(=O)[C@H]1O[C@@H](n2cnc3c(NCc4cccc(C)c4)nc(-c4cncc(C)c4)nc32)[C@H](O)[C@@H]1O [compound 284, (2S,3S,4R,5R)-5-(6-(3-methylbenzylamino)-2-(5-methylpyridin-3-yl)-9H-purin-9-yl)-3,4-dihydroxyl-N-methyl-tetrahydrofuran-2-formamide] | 2.85 nM | 8902.66 kg·ng·h/mL/mg |
| [2H]C([2H])([2H])NC(=O)[C@H]1O[C@@H](n2cnc3c(NCc4ccsc4)nc(-c4cncc(Cl)c4)nc32)[C@H](O)[C@@H]1O [compound 255, (2S,3S,4R,5R)-5-(2-(5-chloropyridin-3-yl)-6-((thiophen-3-ylmethyl)amino)-9H-purin-9-yl)-3,4-dihydroxyl-N-(methyl-d3)tetrahydrofuran-2-carboxamide] | 8.58 nM | 406.00 kg·ng·h/mL/mg |
| CNC(=O)[C@H]1O[C@@H](n2cnc3c(NCc4cc(C(F)(F)F)ccn4)nc(-c4cncc(Cl)c4)nc32)[C@H](O)[C@@H]1O [compound 294, (2S,3S,4R,5R)-5-(2-(5-chloropyridin-3-yl)-6-(((4-(trifluoromethyl)pyridin-2-yl)methyl)amino)-9H-purin-9-yl)-3,4-dihydroxyl-N-methyltetrahydrofuran-2-carboxamide] | 2.62 nM | 639.00 kg·ng·h/mL/mg |
| [2H]C([2H])([2H])NC(=O)[C@H]1O[C@@H](n2cnc3c(NC([2H])([2H])[2H])nc(-c4ccsc4)nc32)[C@H](O)[C@@H]1O [compound 92, (2S,3S,4R,5R)-3,4-dihydroxyl-N-(methyl-d3)-5-(6-(methyl-d3-amino)-2-(thiophen-3-yl)-9H-purin-9-yl)tetrahydrofuran-2-carboxamide] | < 0.51 nM | 83.00 kg·ng·h/mL/mg |
| CNC(=O)[C@H]1O[C@@H](n2cnc3c(NCc4cccc(C)c4)nc(-c4cccnc4)nc32)[C@H](O)[C@@H]1O [compound 108, (2S,3S,4R,5R)-3,4-dihydroxyl-N-methyl-5-(6-((3-methylbenzyl)amino)-2-(pyridin-3-yl)-9H-purin-9-yl)tetrahydrofuran-2-carboxamide] | 1.58 nM | 801.47 kg·ng·h/mL/mg |
| [2H]C([2H])([2H])NC(=O)[C@H]1O[C@@H](n2cnc3c(NCc4cc(Cl)ccc4F)nc(-c4cncc(Cl)c4)nc32)[C@H](O)[C@@H]1O [compound 245, (2S,3S,4R,5R)-5-(6-(5-chloro-2-fluorobenzylamino)-2-(5-chloropyridin-3-yl)-9H-purin-9-yl)-3,4-dihydroxyl-N-((methyl-d3))-tetrahydrofuran-2-carboxamide] | 0.28 nM | 1182.41 kg·ng·h/mL/mg |
| CNC(=O)[C@H]1O[C@@H](n2cnc3c(NCc4cc(Cl)ccn4)nc(-c4cccnc4)nc32)[C@H](O)[C@@H]1O [compound 182, (2S,3S,4R,5R)-5-(6-((4-chloropyridin-2-yl)methylamino)-2-(pyridin-3-yl)-9H-purin-9-yl)-3,4-dihydroxyl-N-methyl-tetrahydrofuran-2-formamide] | < 0.51 nM | 235.62 kg·ng·h/mL/mg |
| CNC(=O)[C@H]1O[C@@H](n2cnc3c(NCc4cccc(C)c4)nc(-c4cncc(Cl)c4)nc32)[C@H](O)[C@@H]1O [compound 160, (2S,3S,4R,5R)-5-(2-(5-chloropyridin-3-yl)-6-((3-methylbenzyl)amino)-9H-purin-9-yl)-3,4-dihydroxyl-N-methyltetrahydrofuran-2-carboxamide] | 3.53 nM | 1900.75 kg·ng·h/mL/mg and 1515.94 kg·ng·h/mL/mg |
| CNC(=O)[C@H]1O[C@@H](n2cnc3c(NC)nc(-c4cccnc4)nc32)[C@H](O)[C@@H]1O [compound 102, (2S,3S,4R,5R)-3,4-dihydroxyl-N-methyl-5-(6-(methylamino)-2-(pyridin-3-yl)-9H-purin-9-yl)tetrahydrofuran-2-carboxamide] | 1.41 nM | – |
| [2H]C([2H])([2H])NC(=O)[C@H]1O[C@@H](n2cnc3c(NCc4cccc(C)c4)nc(-c4cncc(OC)c4)nc32)[C@H](O)[C@@H]1O [compound 302] | 2.26 nM | – |
| [2H]C([2H])([2H])NC(=O)[C@H]1O[C@@H](n2cnc3c(NCc4cccc(CC)c4)nc(-c4cncc(Cl)c4)nc32)[C@H](O)[C@@H]1O [compound 223, (2S,3S,4R,5R)-5-(2-(5-chloropyridin-3-yl)-6-((3-ethylbenzyl)amino)-9H-purin-9-yl)-3,4-dihydroxyl-N-(methyl-d3)-tetrahydrofuran-2-carboxamide] | 15.2 nM | – |
| [2H]C([2H])([2H])NC(=O)[C@H]1O[C@@H](n2cnc3c(NCc4cc(F)ccc4Cl)nc(-c4cncc(Cl)c4)nc32)[C@H](O)[C@@H]1O [compound 246, (2S,3S,4R,5R)-5-(6-(2-chloro-5-fluorobenzylamino)-2-(5-chloropyridin-3-yl)-9H-purin-9-yl)-3,4-dihydroxyl-N-(methyl-d3)-tetrahydrofuran-2-carboxamide] | 1.18 nM | – |
| CNC(=O)[C@H]1O[C@@H](n2cnc3c(NC)nc(-c4cncc(Cl)c4)nc32)[C@H](O)[C@@H]1O [compound 70, (2S,3S,4R,5R)-5-(2-(5-chloropyridin-3-yl)-6-(methylamino)-9H-purin-9-yl)-3,4-dihydroxyl-N-methyltetrahydrofuran-2-carboxamide] | 1.23 nM | – |
| CNC(=O)[C@H]1OC(n2cnc3c(NCc4ccccc4)nc(-c4ccccn4)nc32)[C@H](O)[C@@H]1O (stereo in doubt) [compound 325, (2S,3S,4R,5S)-5-(6-(benzylamino)-2-(pyridin-2-yl)-9H-purin-9-yl)-3,4-dihydroxyl-N-methyltetrahydrofuran-2-carboxamide] | 9.62 nM | – |

Source: US12655174B2, “Adenosine A3 receptor agonists, preparation methods and uses thereof” (ZHEJIANG VIMGREEN PHARMACEUTICALS, LTD., priority 2020, dated 2026)
